Results as given in patent US6358885B1, “Substituted phenylheterocyclic herbicides” (Mississippi State University, priority 1992, dated 2002).

Key:
Assay in all cases: Test B preemergence/postemergence greenhouse plant response rating 0 to 10
Settings in all cases: 0 to 10 scale
wild buckwheat = type: in vivo, Polygonum convolvulus
Method in brief: (§1)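 Test chemicals, dissolved in a non-phytotoxic solvent, were applied to soil at planting and, at the same time, over foliage of seedlings at the one to four leaf stage.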

giant foxtail = type: in vivo, Setaria faberii
Method in brief: as §1

morningglory = type: in vivo, Ipomoea hederacea
Method in brief: as §1

wheat = type: in vivo, Triticum aestivum
Method in brief: as §1

purple nutsedge = type: in vivo, Cyperus rotundus
Method in brief: as §1

sugar beet = type: in vivo, Beta vulgaris
Method in brief: as §1

bedstraw = type: in vivo, Galium aparine
Method in brief: as §1

barley = type: in vivo, Hordeum vulgare
Method in brief: as §1

barnyardgrass = type: in vivo, Echinochloa crus-galli
Method in brief: as §1

wild oat = type: in vivo, Avena fatua
Method in brief: as §1

soybean = type: in vivo, Glycine max
Method in brief: as §1

cheatgrass = type: in vivo, Bromus secalinus
Method in brief: as §1

corn = type: in vivo, Zea mays
Method in brief: as §1

chickweed = type: in vivo, Stellaria media
Method in brief: as §1

sorghum = type: in vivo, Sorghum bicolor
Method in brief: as §1

blackgrass = type: in vivo, Alopecurus myosuroides
Method in brief: as §1

lambsquarters = type: in vivo, Chenopodium album
Method in brief: as §1

cotton = type: in vivo, Gossypium hirsutum
Method in brief: as §1

velvetleaf = type: in vivo, Abutilon theophrasti
Method in brief: as §1

cocklebur = type: in vivo, Xanthium pensylvanicum
Method in brief: as §1

rape = type: in vivo, Brassica napus
Method in brief: as §1

rice = type: in vivo, Oryza sativa
Method in brief: as §1

crabgrass = type: in vivo, Digitaria spp.
Method in brief: as §1

SMILES: COCCN1C(=O)COc2cc(F)c(-c3nn4c(c3Cl)CCCC4)cc21 [Compound 53]
- Plant response rating, Wild buckwheat (wild buckwheat; POSTEMERGENCE, Rate 10 g/ha): 10
- Plant response rating, Wild buckwheat (wild buckwheat; POSTEMERGENCE, Rate 50 g/ha): 10
- Plant response rating, Wild buckwheat (wild buckwheat; PREEMERGENCE, Rate 50 g/ha): 9
- Plant response rating, Giant foxtail (giant foxtail; POSTEMERGENCE, Rate 10 g/ha): 3
- Plant response rating, Giant foxtail (giant foxtail; POSTEMERGENCE, Rate 50 g/ha): 6
- Plant response rating, Giant foxtail (giant foxtail; PREEMERGENCE, Rate 10 g/ha): 2
- Plant response rating, Giant foxtail (giant foxtail; PREEMERGENCE, Rate 50 g/ha): 8
- Plant response rating, Morningglory (morningglory; POSTEMERGENCE, Rate 10 g/ha): 9
- Plant response rating, Morningglory (morningglory; POSTEMERGENCE, Rate 50 g/ha): 10
- Plant response rating, Morningglory (morningglory; PREEMERGENCE, Rate 50 g/ha): 10
- Plant response rating, Wheat (wheat; POSTEMERGENCE, Rate 10 g/ha): 7
- Plant response rating, Wheat (wheat; POSTEMERGENCE, Rate 50 g/ha): 7
- Plant response rating, Wheat (wheat; PREEMERGENCE, Rate 50 g/ha): 7
- Plant response rating, Nutsedge (purple nutsedge; POSTEMERGENCE, Rate 10 g/ha): 6
- Plant response rating, Nutsedge (purple nutsedge; POSTEMERGENCE, Rate 50 g/ha): 6
- Plant response rating, Nutsedge (purple nutsedge; PREEMERGENCE, Rate 50 g/ha): 0
- Plant response rating, Sugar beet (sugar beet; POSTEMERGENCE, Rate 10 g/ha): 10
- Plant response rating, Sugar beet (sugar beet; POSTEMERGENCE, Rate 50 g/ha): 10
- Plant response rating, Sugar beet (sugar beet; PREEMERGENCE, Rate 50 g/ha): 9
- Plant response rating, Bedstraw (bedstraw; POSTEMERGENCE, Rate 10 g/ha): 8
- Plant response rating, Bedstraw (bedstraw; POSTEMERGENCE, Rate 50 g/ha): 10
- Plant response rating, Bedstraw (bedstraw; PREEMERGENCE, Rate 10 g/ha): 8
- Plant response rating, Bedstraw (bedstraw; PREEMERGENCE, Rate 50 g/ha): 9
- Plant response rating, Barley (barley; POSTEMERGENCE, Rate 10 g/ha): 4
- Plant response rating, Barley (barley; POSTEMERGENCE, Rate 50 g/ha): 6
- Plant response rating, Barley (barley; PREEMERGENCE, Rate 10 g/ha): 1
- Plant response rating, Barley (barley; PREEMERGENCE, Rate 50 g/ha): 1
- Plant response rating, Barnyardgrass (barnyardgrass; POSTEMERGENCE, Rate 10 g/ha): 3
- Plant response rating, Barnyardgrass (barnyardgrass; POSTEMERGENCE, Rate 50 g/ha): 6
- Plant response rating, Barnyardgrass (barnyardgrass; PREEMERGENCE, Rate 10 g/ha): 2
- Plant response rating, Barnyardgrass (barnyardgrass; PREEMERGENCE, Rate 50 g/ha): 2
- Plant response rating, Wild oat (wild oat; POSTEMERGENCE, Rate 10 g/ha): 6
- Plant response rating, Wild oat (wild oat; POSTEMERGENCE, Rate 50 g/ha): 7
- Plant response rating, Wild oat (wild oat; PREEMERGENCE, Rate 50 g/ha): 8
- Plant response rating, Soybean (soybean; POSTEMERGENCE, Rate 10 g/ha): 9
- Plant response rating, Soybean (soybean; POSTEMERGENCE, Rate 50 g/ha): 9
- Plant response rating, Soybean (soybean; PREEMERGENCE, Rate 50 g/ha): 0
- Plant response rating, Cheatgrass (cheatgrass; POSTEMERGENCE, Rate 10 g/ha): 5
- Plant response rating, Cheatgrass (cheatgrass; POSTEMERGENCE, Rate 50 g/ha): 4
- Plant response rating, Cheatgrass (cheatgrass; PREEMERGENCE, Rate 10 g/ha): 3
- Plant response rating, Cheatgrass (cheatgrass; PREEMERGENCE, Rate 50 g/ha): 4
- Plant response rating, Corn (corn; POSTEMERGENCE, Rate 10 g/ha): 4
- Plant response rating, Corn (corn; POSTEMERGENCE, Rate 50 g/ha): 4
- Plant response rating, Corn (corn; PREEMERGENCE, Rate 50 g/ha): 0
- Plant response rating, Chickweed (chickweed; POSTEMERGENCE, Rate 10 g/ha): 9
- Plant response rating, Chickweed (chickweed; POSTEMERGENCE, Rate 50 g/ha): 9
- Plant response rating, Chickweed (chickweed; PREEMERGENCE, Rate 10 g/ha): 10
- Plant response rating, Chickweed (chickweed; PREEMERGENCE, Rate 50 g/ha): 10
- Plant response rating, Sorghum (sorghum; POSTEMERGENCE, Rate 10 g/ha): 3
- Plant response rating, Sorghum (sorghum; POSTEMERGENCE, Rate 50 g/ha): 3
- Plant response rating, Sorghum (sorghum; PREEMERGENCE, Rate 50 g/ha): 6
- Plant response rating, Blackgrass (blackgrass; POSTEMERGENCE, Rate 10 g/ha): 5
- Plant response rating, Blackgrass (blackgrass; POSTEMERGENCE, Rate 50 g/ha): 5
- Plant response rating, Blackgrass (blackgrass; PREEMERGENCE, Rate 10 g/ha): 4
- Plant response rating, Blackgrass (blackgrass; PREEMERGENCE, Rate 50 g/ha): 6
- Plant response rating, Lambsquarter (lambsquarters; POSTEMERGENCE, Rate 10 g/ha): 10
- Plant response rating, Lambsquarter (lambsquarters; POSTEMERGENCE, Rate 50 g/ha): 10
- Plant response rating, Lambsquarter (lambsquarters; PREEMERGENCE, Rate 50 g/ha): 10
- Plant response rating, Cotton (cotton; POSTEMERGENCE, Rate 10 g/ha): 10
- Plant response rating, Cotton (cotton; POSTEMERGENCE, Rate 50 g/ha): 10
- Plant response rating, Cotton (cotton; PREEMERGENCE, Rate 10 g/ha): 0
- Plant response rating, Cotton (cotton; PREEMERGENCE, Rate 50 g/ha): 2
- Plant response rating, Velvetleaf (velvetleaf; POSTEMERGENCE, Rate 10 g/ha): 9
- Plant response rating, Velvetleaf (velvetleaf; POSTEMERGENCE, Rate 50 g/ha): 10
- Plant response rating, Velvetleaf (velvetleaf; PREEMERGENCE, Rate 50 g/ha): 9
- Plant response rating, Cocklebur (cocklebur; POSTEMERGENCE, Rate 10 g/ha): 9
- Plant response rating, Cocklebur (cocklebur; POSTEMERGENCE, Rate 50 g/ha): 10
- Plant response rating, Cocklebur (cocklebur; PREEMERGENCE, Rate 10 g/ha): 0
- Plant response rating, Cocklebur (cocklebur; PREEMERGENCE, Rate 50 g/ha): 1
- Plant response rating, Rape (rape; POSTEMERGENCE, Rate 10 g/ha): 10
- Plant response rating, Rape (rape; POSTEMERGENCE, Rate 50 g/ha): 10
- Plant response rating, Rape (rape; PREEMERGENCE, Rate 50 g/ha): 2
- Plant response rating, Rice (rice; POSTEMERGENCE, Rate 10 g/ha): 4
- Plant response rating, Rice (rice; POSTEMERGENCE, Rate 50 g/ha): 4
- Plant response rating, Rice (rice; PREEMERGENCE, Rate 50 g/ha): 1
- Plant response rating, Crabgrass (crabgrass; POSTEMERGENCE, Rate 10 g/ha): 3
- Plant response rating, Crabgrass (crabgrass; POSTEMERGENCE, Rate 50 g/ha): 4
- Plant response rating, Crabgrass (crabgrass; PREEMERGENCE, Rate 10 g/ha): 2
- Plant response rating, Crabgrass (crabgrass; PREEMERGENCE, Rate 50 g/ha): 6
